Assay results reported in ChEMBL document CHEMBL1139284, “Synthesis and evaluation of novel photoreactive alpha-amino acid analog carrying acidic and cleavable functions” (Bioorg Med Chem Lett, 2009).
The source made the active and inactive calls. The rule behind the calls is not given here.

Columns and labels:
[1] = target: Glutamyl endopeptidase (Staphylococcus aureus) (UniProt P0C1U8); experiment: Binding affinity to Staphylococcus aureus V8 glutamyl endopeptidase after 40 mins of UV irradiation by photoaffinity labeling assay
[2] = target: Glutamyl endopeptidase (Staphylococcus aureus, UniProt P0C1U8); experiment: Binding affinity to Staphylococcus aureus V8 glutamyl endopeptidase; settings: read-out: Ki(app)
Chain of Glutamyl endopeptidase (P0C1U8 whole entry): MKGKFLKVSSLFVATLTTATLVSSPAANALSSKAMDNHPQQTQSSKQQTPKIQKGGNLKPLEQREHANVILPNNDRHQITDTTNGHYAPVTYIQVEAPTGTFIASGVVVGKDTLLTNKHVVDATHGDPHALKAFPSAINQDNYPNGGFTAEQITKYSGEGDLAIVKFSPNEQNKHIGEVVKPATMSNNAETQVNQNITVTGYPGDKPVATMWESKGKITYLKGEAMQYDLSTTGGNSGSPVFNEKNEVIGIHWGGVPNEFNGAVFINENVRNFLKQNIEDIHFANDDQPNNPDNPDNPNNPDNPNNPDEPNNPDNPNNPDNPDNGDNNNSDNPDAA

Chain of Glutamyl endopeptidase (Staphylococcus aureus) (P0C1U8 whole entry): as above

Row | Structure (SMILES) | Activity [1] | Ki [2] [µM]
1 | CC(C)(C)OC(=O)N[C@@H](CCC(=O)OCc1ccccc1)C(N)=O | inactive | 
2 | CC(C)(C)OC(=O)N[C@@H](CS(=O)(=O)NC(=O)c1ccc(C2(C(F)(F)F)N=N2)cc1)C(=O)NCCOCCOCCNC(=O)CCCC[C@@H]1SCC2NC(=O)NC21 (some centres undefined) |  | 162
3 | CC(C)(C)OC(=O)N[C@@H](CCC(=O)O)C(N)=O | Active | 
4 | CC(C)(C)OC(=O)N[C@@H](CS(=O)(=O)NC(=O)c1ccccc1)C(N)=O | Active | 
